Test results as given in PMC8305571 (2021).

Assays:
[1] = tested on: Scle (DNA, G4) TGGGGGGGTGGGTGGGT; test: CD melting, 264 nm; details: 50 mM KCl; mBR buffer, pH 7.0; derived from two Tm (81.5, >100); indicative values
[2] = tested on: HTR (DNA, G4) GGGTTAGGGTTAGGGTTAGGG; test: CD melting, 294 nm; details: 50 mM KCl; mBR buffer, pH 7.0; derived from two Tm (63.5, 64.0); indicative values
[3] = tested on: TBA (DNA, G4) GGTTGGTGTGGTTGG; test: CD melting, 294 nm; details: 50 mM KCl; mBR buffer, pH 7.0; derived from two Tm (46.5, 48.5); indicative values
[4] = tested on: Hema (DNA, G4) GGGGTCGGGCGGGCCGGGTG; test: CD melting, 264 nm; details: 50 mM KCl; mBR buffer, pH 7.0; derived from two Tm (72.0, 86.0); indicative values
[5] = tested on: STAT (DNA, G4) GGGCGGGCGGGCGGG; test: CD melting, 264 nm; details: mBR buffer, pH 7.0, indicative values
[6] = tested on: ionK (DNA, G4) GGGTTAGGGTTAGGGTAGGG; test: CD melting, 294 nm; details: 50 mM KCl; mBR buffer, pH 7.0; derived from two Tm (59.1, 58.0); indicative values
[7] = tested on: VEGF (DNA, G4) GGGGCGGGCCGGGGGCGGG; test: CD melting, 264 nm; details: mBR buffer, pH 7.0, indicative values
[8] = tested on: TFO1 (DNA, triplex) AAAAAAAACCCCTTTTTTTTCCCCTTTTTTTT; test: CD melting, 282 nm; details: no added salt; mBR buffer, pH 7.0; derived from two Tm (20.4, 17.7); indicative values
[9] = tested on: G3A (DNA, G4) GGGAGGGAGGGAGGGA; test: CD titration, PAGE; details: 50 mM NaCl or KCl; mBR buffer, pH 7.0; up to 260 µM RhG (CD), 130 µM (PAGE)
[10] = tested on: G3C (DNA, G4) GGGCGGGCGGGCGGGC; test: CD titration, PAGE; details: 50 mM NaCl or KCl; mBR buffer, pH 7.0; up to 260 µM RhG (CD), 130 µM (PAGE)
[11] = tested on: HTR (DNA, G4) GGGTTAGGGTTAGGGTTAGGG; test: CD melting, 294 nm; details: 50 mM NaCl; 25 mM mBR buffer, pH 7.0; ligand concentration not given; indicative value
[12] = tested on: Scle (DNA, G4) TGGGGGGGTGGGTGGGT; test: CD melting, 264 nm; details: 50 mM NaCl; 25 mM mBR buffer, pH 7.0; ligand concentration not given; indicative value
[13] = tested on: TBA (DNA, G4) GGTTGGTGTGGTTGG; test: CD melting, 294 nm; details: 50 mM NaCl; 25 mM mBR buffer, pH 7.0; ligand concentration not given; indicative value
[14] = tested on: Hema (DNA, G4) GGGGTCGGGCGGGCCGGGTG; test: CD melting, 264 nm; details: 50 mM NaCl; 25 mM mBR buffer, pH 7.0; ligand concentration not given; indicative value
[15] = tested on: ionK (DNA, G4) GGGTTAGGGTTAGGGTAGGG; test: CD melting, 294 nm; details: 50 mM NaCl; 25 mM mBR buffer, pH 7.0; ligand concentration not given; indicative value
[16] = tested on: Scle (DNA, G4) TGGGGGGGTGGGTGGGT; test: induced CD and UV-Vis titration; details: 50 mM KCl; mRB buffer, pH 7.0; 130 µM RhG, DNA up to 27 µM
[17] = tested on: HTR (DNA, G4) GGGTTAGGGTTAGGGTTAGGG; test: temperature gradient gel electrophoresis (TGGE); details: 2.5 mM KCl; 25 mM mBR buffer, pH 7.0; 260 µM RhG in gel; antiparallel form; parallel form >62 ± 2 °C with RhG

For `CCN=c1cc2oc3cc(NCC)c(C)cc3c(-c3ccccc3C(=O)OCC)c-2cc1C`, the “ΔTm (Tm shift)” value [1] was greater than 18.5 °C, the “ΔTm (Tm shift)” value [2] was 0.5 °C and the “ΔTm (Tm shift)” value [3] was 2.0 °C. The “ΔTm (Tm shift)” value [4] was 14.0 °C, the “ΔTm (RhG minus no ligand)” value ([5]; 50 mM KCl, derived from two Tm (92.8, >100)) was greater than 7.2 °C and the “ΔTm (RhG minus no ligand)” value ([5]; 50 mM NaCl, derived from two Tm (54.5, 76.5)) was 22.0 °C. For the same molecule, the “ΔTm (RhG minus no ligand)” value [6] was -1.1 °C, the “ΔTm (RhG minus no ligand)” value ([7]; 50 mM KCl, derived from two Tm (85.6, 87.9)) was 2.3 °C and the “ΔTm (RhG minus no ligand)” value ([7]; 50 mM NaCl, derived from two Tm (47.5, 82.0)) was 34.5 °C. The “ΔTm (Tm shift)” value [8] was -2.7 °C, the binding [9] was “yes” and the binding [10] was “yes”. For the same molecule, the Tm [11] was 52.0 (no ligand 52.0) °C, the Tm [12] was 77.0 (no ligand 62.0) °C and the Tm [13] was 26.8 (no ligand 20.0) °C. The Tm [14] was 54.3 (no ligand ND) °C, the Tm [15] was 48.5 (no ligand 46.2) °C and the binding [16] was “yes”. The Tm [17] was 50.6 (no ligand 46.5) °C.
